Experimental data from patent US8762074B2, “Optimizing culture medium for CD34<+> hematopoietic cell expansion” (Sino-Cell Technologies, priority 2004, dated 2014).

B1: Flt-3 ligand (protein, UniProt P49771 27-235, looked up)
Fms-related tyrosine kinase 3 …: TQDCSFQHSPISSDFAVKIRELSDYLLQDYPVTVASNLQDEELCGGLWRLVLAQRWMERLKTVAGSKMQGLLERVNTEIHFVTKCAFQPPPSCLRFVQTNISRLLQETSEQLVALKPWITRQNFSRCLELQCQPDSSTLPPPWSPRPLEATAPTAPQPPLLLLLLLPVGLLLLAAAWCLHWQRTRRRTPRPGEQVPPVPSPQDLLLVEH
notes: recombinant human growth factor
B2: granulocyte colonystimulating factor (protein, UniProt P09919 31-207, looked up)
Granulocyte …: TPLGPASSLPQSFLLKCLEQVRKIQGDGAALQEKLVSECATYKLCHPEELVLLGHSLGIPWAPLSSCPSQALQLAGCLSQLHSGLFLYQGLLQALEGISPELGPTLDTLQLDVADFATTIWQQMEELGMAPALQPTQGAMPAFASAFQRRAGGVLVASHLQSFLEVSYRVLRHLAQP
notes: as for B1
B3: IL-6 sR: IL-6 sR (soluble receptor), purchased from R&D systems (protein, UniProt P08887 20-365, looked up)
extracellular domain: LAPRRCPAQEVARGVLTSLPGDSVTLTCPGVEPEDNATVHWVLRKPAAGSHPSRWAGMGRRLLLRSVQLHDSGNYSCYRAGRPAGTVHLLVDVPPEEPQLSCFRKSPLSNVVCEWGPRSTPSLTTKAVLLVRKFQNSPAEDFQEPCQYSQESQKFSCQLAVPEGDSSFYIVSMCVASSVGSKFSKTQTFQGCGILQPDPPANITVTAVARNPRWLSVTWQDPHSWNSSFYRLRFELRYRAERSKTFTTWMVKDLQHHCVIHDAWSGLRHVVQLRAQEEFGQGEWSEWSPEAMGTPWTESRSPPAENEVSTPMQALTTNKDDDNILFRDSANATSLPVQDSSSVPLP
modifications: extracellular domain
notes: IL-6 sR (soluble receptor), purchased from R&D systems

Experiments:
WBC = assay: Ex vivo expansion culture of UCB CD133+/CD34+ cells, WBC growth (cell density at day 7); format: cell-based, human; details: for regression coefficient of first-order model, Eq. (6): from Table 7, IMDM containing TISF; for regression coefficient of first-order model, Eq. (8): from Table 8, cytokine-containing medium; for effect on WBC growth: per Eq. (2), serum-containing IMDM; for regression coefficient of first-order model, Eq. (4): from Table 5, serum-containing medium, +1 = 10 ng/ml
Description: (§1) The UCB of full-termed healthy newborns, included uneventful vaginal births or cesarean sections, was harvested with a standard 250-ml blood bag containing citrate-phosphate-dextrose-adenine anticoagulant (Terumo, Shibuya-ku, Tokyo, Japan).
(§2) Buffy coat cells were obtained from UCB samples by centrifugation (700×g for 20 min), and were diluted with an equal volume of wash buffer (Dulbecco's phosphate buffered saline (D-PBS, Sigma, St. Louis, Mo.) contain 2 mM EDTA (Sigma)). Then the Buffy coat cells were layered onto Ficoll-Paque (ρ=1.077 g/ml, Amersham Biosciences, Uppsala, Sweden) density gradients to deplete red blood cells (RBC) (700×g for 40 min). The mononuclear cell (MNC) interface was collected, diluted into four volumes of wash buffer, and centrifuged to pellet the cells (700×g for 10 min). The MNC pellet was washed twice and resuspended in MACS buffer (D-PBS contained 0.5% bovine serum albumin (BSA, Sigma) and 2 mM EDTA) for CD133<+> cell purification. CD133<+> cord blood cells were isolated using the Miltenyi VarioMACS device (Miltenyi Biotec, Bergisch Gladbach, Germany), according to the manufacturer's instruction. Briefly, UCB MNC were incubated for 30 min at 4° C. with human IgG to block the Fc receptors and mouse monoclonal antibody to human CD133 microbead (Miltenyi Biotec). Labeled cells were applied to magnetic column (LS column, Miltenyi Biotec). Then, unbound cells were washed out, and CD133<+> cells were eluted from the column with MACS buffer. To improve the purity of the CD133+ (or CD34<+>) cells, a secondary purification cycle was performed with the same way. Then the cells were sampled for CD34<+> analysis to determine yield, purity and viability and assayed for colony-forming cells (CFC) as day 0 for control. To expand cells, CD133<+> cells were seeded at a concentration of 5×10^4 cells/ml in 24-well plate (1 ml per well, Falcon, N.J.) with variable serum substitutes, cytokines and medium according to experiment design. After 7 days, the cells were analyzed to compare with the day 0 control (all experiments were repeated at least four times).
(§3) Two-level factorial design followed the method of steepest ascent was carried out to find the optimal concentration of serum substitutes and cytokines for CD34<+> cells expansion. Fractional and full factorial design data were regressed by SPSS software (SPSS Inc. In: SPSS for Windows, base system user's guide. Release 6.0. Chicago, Ill.: SPSS Inc.; 1993. p. 235-47) to obtain the first order polynomial. Its statistical significance was determined by an F-test and the significance of the regression coefficients was analyzed by a t-test. The polynomial takes the form of White blood cell or CD34<+> cell (cells/ml)=β0+βiXi (1) where β's are the regression constants and X's are coded variables for the tested additives.

[1] = system: CD34<+> hematopoietic cells; assay: Ex vivo expansion culture of UCB CD133+/CD34+ cells, CD34+ cell growth by flow cytometry (cell density at day 7); format: cell-based, human; details: for regression coefficient of first-order model, Eq. (7): from Table 7, IMDM containing TISF; for regression coefficient of first-order model, Eq. (9): from Table 8, cytokine-containing medium; for effect on CD34<+> cell growth/expansion: per Eq. (3), serum-containing IMDM; for regression coefficient of first-order model, Eq. (5): from Table 5, +1 = 10 ng/ml
Description: as §1, §2
Cells before and after expanding culture were analyzed by two-color flow cytometry on a FACSCaliber analyzer (Becton-Dickinson, NJ, USA). About 1×10^6 cells were stained with FITC-conjugated anti-human CD45 and Peconjugated anti-human CD34, and gated for CD45<+>CD34<+> cells with low side scatter, according to the CD34 enumeration protocols developed by the International Society of Hematotherapy and Graft Engineering (ISHAGE) (Sutherland Dr, et al, J Hematother 1996; 5:231-8). A replicate sample was stained with FITC-antiCD45 and PE-mouse IgG1 as an isotype control to ensure specificity.
as §3

[2] = per Eqs. (6) and (7), serum substitutes in IMDM containing TISF
[3] = per Eqs. (8) and (9), serum substitutes in serum-free medium
[4] = 2^9−5 fractional factorial design in IMDM containing BIT2 (data not shown)
[5] = per Eqs. (10) and (11), serum-free IMDM + BIT2
[6] = per Eqs. (4) and (5), serum-containing medium

Molecule	regression coefficient of first-order model, Eq. (6) (WBC)	regression coefficient of first-order model, Eq. (7) [1]	regression coefficient of first-order model, Eq. (9) [1]	effect on WBC and CD34<+> cell growth [1, 2]	effect on WBC and CD34<+> cell growth [1, 3]	regression coefficient of first-order model, Eq. (8) (WBC)	effect on WBC and CD34<+> cell growth [1, 4]	effect on CD34<+> cell growth/expansion [1]	effect on WBC and CD34<+> cell growth [1, 5]	effect on WBC growth (WBC)	regression coefficient of first-order model, Eq. (5) ([1]; serum-containing medium)	effect on WBC and CD34<+> cell growth [1, 6]	regression coefficient of first-order model, Eq. (4) (WBC)
C[C@]12CCC(=O)C=C1CC[C@@H]1[C@@H]2[C@@H](O)C[C@@]2(C)[C@H]1CC[C@]2(O)C(=O)CO [HC, hydrocortisone, reference compound]	0.5 10^5 WBC cells/ml												
OCCS [Trial 2-ME, 2-mercaptoethanol]	0.875 10^5 WBC cells/ml	0.311 10^5 CD34<+> cells/ml	0.025 10^6 CD34<+> cells/ml	can stimulate both WBC and CD34<+> cell growth	could promote WBC and CD34<+> cell growth instead of serum	0.069 10^6 WBC cells/ml							
IL-6: recombinant human interleukin-6, purchased from R&D systems							could facilitate WBC and CD34<+> cell growth	less positive effects than TPO, IL-3, SCF and FL	positively affected WBC and CD34<+> cell growth				
Transferrin [TF]		0.120 10^5 CD34<+> cells/ml	0.303 10^6 CD34<+> cells/ml	can stimulate both WBC and CD34<+> cell growth	could promote WBC and CD34<+> cell growth instead of serum	0.7 10^6 WBC cells/ml							
bovine serum albumin [BSA]	2.625 10^5 WBC cells/ml	0.945 10^5 CD34<+> cells/ml	0.302 10^6 CD34<+> cells/ml	can stimulate both WBC and CD34<+> cell growth	could promote WBC and CD34<+> cell growth instead of serum	0.362 10^6 WBC cells/ml							
granulocyte-macrophage colony-stimulating factor [GM-CSF]							could facilitate WBC and CD34<+> cell growth	negative	positively affected WBC and CD34<+> cell growth	positive			
insulin	1.250 10^5 WBC cells/ml	0.231 10^5 CD34<+> cells/ml	0.053 10^6 CD34<+> cells/ml	can stimulate both WBC and CD34<+> cell growth	could promote WBC and CD34<+> cell growth instead of serum	0.131 10^6 WBC cells/ml							
stem cell factor [SCF]							could facilitate WBC and CD34<+> cell growth	can stimulate CD34<+> cell expansion	positively affected WBC and CD34<+> cell growth	stronger effects than the other cytokines	0.162 10^6 CD34<+> cells/ml	facilitated WBC and CD34<+> cell growth	0.387 10^6 WBC cells/ml
thrombopoietin [TPO]							could facilitate WBC and CD34<+> cell growth	can stimulate CD34<+> cell expansion	positively affected WBC and CD34<+> cell growth	stronger effects than the other cytokines	0.172 10^6 CD34<+> cells/ml	facilitated WBC and CD34<+> cell growth	0.413 10^6 WBC cells/ml
B1							could facilitate WBC and CD34<+> cell growth	can stimulate CD34<+> cell expansion	positively affected WBC and CD34<+> cell growth	stronger effects than the other cytokines	0.110 10^6 CD34<+> cells/ml	facilitated WBC and CD34<+> cell growth	0.237 10^6 WBC cells/ml
B2							could facilitate WBC and CD34<+> cell growth	less positive effects than TPO, IL-3, SCF and FL	positively affected WBC and CD34<+> cell growth				
B3										inhibited WBC growth			
